From ChEMBL document CHEMBL4382257, “Identification and Profiling of Hydantoins-A Novel Class of Potent Antimycobacterial DprE1 Inhibitors” (J Med Chem, 2018)

Key:
physchem = conditions: buffer, pH 7.4, logD
[1] = Intrinsic clearance in mouse liver microsomes at 0.5 uM after 30 mins in presence of NADPH by LC-MS/MS analysis; format: ADME, Microsome; conditions: 0.5 h
[2] = Intrinsic clearance in human liver microsomes at 0.5 uM after 30 mins in presence of NADPH by LC-MS/MS analysis; format: ADME, Microsome; conditions: 0.5 h
[3] = buffer, pH 7.4

| chromatographic logD (physchem) | CLH [1] | CLH [2] | logD [3] | SMILES |
| --- | --- | --- | --- | --- |
| 5.36 | 1.78 mL/min/g | < 0.4 mL/min/g | – | CC1(c2ccc(OC(F)F)cc2)NC(=O)N(CC(=O)c2ccc(F)cc2F)C1=O (stereo not given) |
| 3.64 | 2.5 mL/min/g | 0.46 mL/min/g | – | CC1(c2ccc(S(C)(=O)=O)cc2)NC(=O)N(CC(=O)c2ccc(F)cc2F)C1=O (stereo not given) |
| 3.78 | 2.44 mL/min/g | < 0.4 mL/min/g | – | CC1(c2ccc(-n3cnnn3)cc2)NC(=O)N(CC(=O)c2ccc(F)cc2F)C1=O (stereo not given) |
| – | – | – | 3.38 | CC1(c2ccc(C#N)cc2)NC(=O)N(CC(=NO)c2ccc(F)cc2F)C1=O (stereo in doubt; 43a) |
